{"source": "paper PMC10449633", "about": "(Nature Chemical Biology, 2023)", "key": {"R66I Sec61α": {"molecular_target": "T1, R66I Sec61α (Canis lupus familiaris, UniProt P38377, R66I)", "T1 construct": "expressed in transfected cells", "T1 sequence (P60468 whole entry, the tested form may be a part)": "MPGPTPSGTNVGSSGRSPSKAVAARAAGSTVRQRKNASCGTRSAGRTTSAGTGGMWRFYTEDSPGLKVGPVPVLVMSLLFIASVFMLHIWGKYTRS", "T1 sequence (P38377 whole entry R66I, the tested form may be a part)": "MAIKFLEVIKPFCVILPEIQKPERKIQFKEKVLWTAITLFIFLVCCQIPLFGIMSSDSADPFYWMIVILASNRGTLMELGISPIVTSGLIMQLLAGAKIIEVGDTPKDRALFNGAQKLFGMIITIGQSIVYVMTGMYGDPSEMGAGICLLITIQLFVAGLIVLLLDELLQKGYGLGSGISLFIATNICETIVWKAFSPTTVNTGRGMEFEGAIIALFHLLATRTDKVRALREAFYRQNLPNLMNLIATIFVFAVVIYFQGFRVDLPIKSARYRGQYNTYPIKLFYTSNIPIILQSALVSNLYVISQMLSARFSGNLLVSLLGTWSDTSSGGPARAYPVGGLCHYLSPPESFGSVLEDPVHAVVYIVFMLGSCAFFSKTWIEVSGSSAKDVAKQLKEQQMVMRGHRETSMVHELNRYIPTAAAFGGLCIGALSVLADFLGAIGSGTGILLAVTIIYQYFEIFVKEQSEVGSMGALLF", "T1 sequence (P60059 whole entry, further chain, the tested form may be a part)": "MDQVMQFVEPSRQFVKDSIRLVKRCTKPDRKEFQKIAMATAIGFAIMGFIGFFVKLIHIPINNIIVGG", "experiment": "GLuc secretion reporter fused to full-length IL-2 or TNF, cells stably expressing R66I Sec61α", "assay_type": "cell-based, canine", "settings": "for Sec61 R66I - Hu IL2(FL) / Sec61 R66I - Hu PD1(ss) / Sec61 R66I - Hu TNFa(FL): replicate columns"}, "Sec61": {"molecular_target": "T2, Sec61 (Homo sapiens, UniProt P61619)", "T2 construct": "endogenous in cells", "experiment": "cell-based", "assay_type": "cell-based", "settings": "for remaining activity at 0.000660151 µM: Drug nM (log10) 0.660151; for remaining activity at 0.00050805 µM: Drug nM (log10) -0.29409"}, "SARS-CoV-2 [1]": {"test_system": "SARS-CoV-2", "assay_type": "cell-based", "settings": "for infectious virus particle production: 48 h"}, "[2]": {"test_system": "collagen antibody-induced arthritis in BALB/c mice", "experiment": "Anticollagen antibody-induced arthritis model, clinical scores", "assay_type": "in vivo, mouse"}, "[3]": {"test_system": "Sec61 WT TNFa(FL) reporter cells", "experiment": "CTG (CellTiter-Glo) viability of TNFa(FL) reporter cells expressing Sec61 WT", "assay_type": "cell-based", "settings": "replicate columns", "from_the_text": "Supplement 41589_2023_1326_MOESM7_ESM.xlsx, sheet \"Panel B\" | column: Sec61 WT - CTG (TNFa(FL))"}, "SARS-CoV-2 [4]": {"test_system": "SARS-CoV-2", "settings": "Vero cells"}, "[5]": {"settings": "HEK-293T, 24 h, VCAM signal peptide, read-out: secreted luciferase activity (% of no-drug control)"}, "[6]": {"settings": "HEK-293T, 24 h, pPL signal peptide, read-out: secreted luciferase activity (% of no-drug control)"}}, "note": "Values joined by “and” are separate entries in the source; they are usually repeats but may differ in a detail not shown here. Equal entries are not always repeated. “Also recorded” adds a separate entry of the source. Where two headings read alike, the source gives them in different places. Numbered stars: 1 amine (or outer) side, 2 acyl side, 3 side chain; on linkers, the order of the positions; unused ones are H or OH. Square brackets hold non-standard residues; d marks the D form. Peptide text beside a SMILES is read from it. ξ: configuration not given here. X1 = CN(C(Cc1cn(Cc2ccc(Br)cc2)c2ccccc12)C(=O)[*:2])[*:1]; ξAla(CF3) = NC(CC(F)(F)F)C(=O)O; X2 = N#CCCC(O[*:1])C(=O)[*:2]; NMeL = CN[CH](CC(C)C)C(=O)O; NMeA = CN[CH](C)C(=O)O", "data": [{"molecule": "CC(C)CC1NC(=O)C(Cc2cn(Cc3ccc(Br)cc3)c3ccccc23)N(C)C(=O)C(CC(F)(F)F)NC(=O)C(CC(C)C)N(C)C(=O)C(CC(F)(F)F)NC(=O)C(CCC#N)OC(=O)C(C)N(C)C1=O", "note": "(centres unmarked) [KZR-8445] (cyclo([X1]L[NMeA][X2][ξAla(CF3)][NMeL][ξAla(CF3)]); configuration not given here)", "values": [{"measurement": "Sec61 R66I - Hu IL2(FL)", "setting": "R66I Sec61α; 0.32 nM", "value": "116 (2×) and 120"}, {"measurement": "Sec61 R66I - Hu PD1(ss)", "setting": "R66I Sec61α; 0.32 nM", "value": "105 and 121 and 112"}, {"measurement": "Sec61 R66I - Hu TNFa(FL)", "setting": "R66I Sec61α; 0.32 nM", "value": "121 and 138 and 116"}, {"measurement": "Sec61 R66I - Hu IL2(FL)", "setting": "R66I Sec61α; 1.6 nM", "value": "105 and 113 and 110"}, {"measurement": "Sec61 R66I - Hu PD1(ss)", "setting": "R66I Sec61α; 1.6 nM", "value": "120 and 103 and 107"}, {"measurement": "Sec61 R66I - Hu TNFa(FL)", "setting": "R66I Sec61α; 1.6 nM", "value": "85 and 126 and 152"}, {"measurement": "Sec61 R66I - Hu IL2(FL)", "setting": "R66I Sec61α; 8 nM", "value": "113 and 98 and 120"}, {"measurement": "Sec61 R66I - Hu PD1(ss)", "setting": "R66I Sec61α; 8 nM", "value": "115 and 104 and 125"}, {"measurement": "Sec61 R66I - Hu TNFa(FL)", "setting": "R66I Sec61α; 8 nM", "value": "118 and 113 and 150"}, {"measurement": "Sec61 R66I - Hu IL2(FL)", "setting": "R66I Sec61α; 40 nM", "value": "101 and 106 and 117"}, {"measurement": "Sec61 R66I - Hu PD1(ss)", "setting": "R66I Sec61α; 40 nM", "value": "115 and 120 and 121"}, {"measurement": "Sec61 R66I - Hu TNFa(FL)", "setting": "R66I Sec61α; 40 nM", "value": "103 and 123 and 141"}, {"measurement": "Sec61 R66I - Hu IL2(FL)", "setting": "R66I Sec61α; 200 nM", "value": "106 and 96 and 94"}, {"measurement": "Sec61 R66I - Hu PD1(ss)", "setting": "R66I Sec61α; 200 nM", "value": "88 and 107 and 86"}, {"measurement": "Sec61 R66I - Hu TNFa(FL)", "setting": "R66I Sec61α; 200 nM", "value": "88 and 105 and 111"}, {"measurement": "Sec61 R66I - Hu IL2(FL)", "setting": "R66I Sec61α; 1000 nM", "value": "79 and 90 and 87"}, {"measurement": "Sec61 R66I - Hu PD1(ss)", "setting": "R66I Sec61α; 1000 nM", "value": "68 and 64 and 75"}, {"measurement": "Sec61 R66I - Hu TNFa(FL)", "setting": "R66I Sec61α; 1000 nM", "value": "82 (2×) and 71"}, {"measurement": "Sec61 R66I - Hu IL2(FL)", "setting": "R66I Sec61α; 5000 nM", "value": "83 and 76 and 88"}, {"measurement": "Sec61 R66I - Hu PD1(ss)", "setting": "R66I Sec61α; 5000 nM", "value": "52 and 49 (2×)"}, {"measurement": "Sec61 R66I - Hu TNFa(FL)", "setting": "R66I Sec61α; 5000 nM", "value": "73 and 85 and 77"}, {"measurement": "Sec61 R66I - Hu IL2(FL)", "setting": "R66I Sec61α; 25000 nM", "value": "89 and 88 and 72"}, {"measurement": "Sec61 R66I - Hu PD1(ss)", "setting": "R66I Sec61α; 25000 nM", "value": "48 (2×) and 40"}, {"measurement": "Sec61 R66I - Hu TNFa(FL)", "setting": "R66I Sec61α; 25000 nM", "value": "70 and 78 and 77"}, {"measurement": "block of secretion of both GLuc reporter constructs in R66I cells", "setting": "R66I Sec61α; IL-2 and TNFα GLuc, versus WT Sec61α", "value": "reduced"}, {"measurement": "potency against VCAM-GLuc relative to pPL-GLuc", "setting": "Sec61; HEK293T, 24 h", "value": 20, "unit": "fold"}, {"measurement": "remaining activity at 0.000660151 µM", "setting": "Sec61; [5]", "value": 84, "unit": "%"}, {"measurement": "remaining activity at 0.00050805 µM", "setting": "Sec61; [5]", "value": 92.6, "unit": "%"}, {"measurement": "remaining activity at 0.000660151 µM", "setting": "Sec61; [6]", "value": 93.6, "unit": "%"}, {"measurement": "remaining activity at 0.004 µM", "setting": "Sec61; HEK-293T, 24 h, pPL signal peptide, Drug nM (log10) 4, read-out: secreted luciferase activity (% of no-drug control)", "value": 14, "unit": "%"}, {"measurement": "remaining activity at 0.00050805 µM", "setting": "Sec61; [6]", "value": 97.9, "unit": "%"}, {"measurement": "IC50", "setting": "Sec61; read-out: IC50, prolactin signal peptide in SP-GLuc secretion assay", "value": "~1000", "unit": "nM"}, {"measurement": "infectious virus particle production", "setting": "SARS-CoV-2 [1]; 0.01 uM", "value": "2000000 TCID50 per milliliter and 1175555 TCID50 per milliliter"}, {"measurement": "infectious virus particle production", "setting": "SARS-CoV-2 [1]; 10 uM", "value": "928.318 TCID50 per milliliter and 632.456 TCID50 per milliliter"}, {"measurement": "CoV-2 replication", "setting": "SARS-CoV-2 [1]; Vero cells", "value": "blocked"}, {"measurement": "P versus vehicle (one-way ANOVA), disease progression", "setting": "[2]; 10 mg kg−1 thrice weekly", "value": 0.01}, {"measurement": "P versus vehicle (one-way ANOVA), disease progression", "setting": "[2]; 20 mg kg−1 thrice weekly", "value": "< 0.0001"}, {"measurement": "P versus vehicle, disease progression", "setting": "[2]; 20 mg kg−1 weekly", "value": 0.007}, {"measurement": "efficacy of weekly administration", "setting": "[2]; 20 mg kg−1 weekly", "value": "effective"}, {"measurement": "arthritis disease progression / clinical symptoms", "setting": "[2]; IV thrice weekly after onset of disease", "value": "blocked disease progression in a dose-dependent manner; also recorded: ameliorated clinical arthritis symptoms"}, {"measurement": "anti-inflammatory effect compared with dexamethasone", "setting": "[2]; highest dose", "value": "stronger anti-inflammatory effect than the corticosteroid dexamethasone"}, {"measurement": "Sec61 WT - CTG (TNFa(FL))", "setting": "[3]; 0.32 nM", "value": "111 and 110 and 116"}, {"measurement": "Sec61 WT - CTG (TNFa(FL))", "setting": "[3]; 1.6 nM", "value": "106 and 113 and 116"}, {"measurement": "Sec61 WT - CTG (TNFa(FL))", "setting": "[3]; 8 nM", "value": "110 and 111 and 115"}, {"measurement": "Sec61 WT - CTG (TNFa(FL))", "setting": "[3]; 40 nM", "value": "112 and 121 and 115"}, {"measurement": "Sec61 WT - CTG (TNFa(FL))", "setting": "[3]; 200 nM", "value": "108 and 114 and 116"}, {"measurement": "Sec61 WT - CTG (TNFa(FL))", "setting": "[3]; 1000 nM", "value": "105 and 108 and 113"}, {"measurement": "Sec61 WT - CTG (TNFa(FL))", "setting": "[3]; 5000 nM", "value": "95 and 105 (2×)"}, {"measurement": "Sec61 WT - CTG (TNFa(FL))", "setting": "[3]; 25000 nM", "value": "92 and 89 (2×)"}, {"measurement": "virus-induced cytotoxicity", "setting": "SARS-CoV-2 [4]", "value": "blocked"}]}]}
